Results on two compounds are retold here after PMC8802628, “Selective activation of PFKL suppresses the phagocytic oxidative burst” (Cell, 2021).

SMILES strings stand for the structures.

Experiment [1] concerns primary human monocytes and human monocytic THP-1 cells. As to the kind of experiment: GSDMD-dependent pyroptosis, LDH release. The conditions noted are these: induced by nigericin, cytoplasmic LPS, or cytoplasmic poly(dA-dT). The format is cell-based. As to the method: (§1) Primary human monocytes were primed with 1 μg/mL ultrapure LPS and 1μg/mL Pam3CSK4 for 3 h. THP-1 cells were primed with 1 μg/mL Pam3CSK4 for 4 h. Primed cells (1 × 10^5) were treated for 1 h with DMSO vehicle, 5 μM LDC7559 (unless indicated otherwise), 10 μM MCC950, or 50 μM VX765, and then for 1 h with 10 μg/mL nigericin, or 25 μg/mL LPS (electroporated using the NEON electroporation system; ThermoFisher Scientific), or they were transfected over 3 h with 1 μg/mL poly(dA-dT) using lipofectamine 2000 (0.5 μL/well).
(§2) LDH released into the culture medium was measured 1-3 h post-activation using a CellTox Green Cytotoxicity assay (Promega). IL-1β secretion was measured using a MSD Cytokine Assay, 96-well multi-array Tissue Culture Kit (Meso Scale Discovery). For immunoblotting, monocytes (2 × 10^6) were treated with 10-50 μM LCD7559 or 50 μM VX765 and electroporated with 25 μg/mL LPS using the NEON electroporation system. Cells were lysed after 1 h using lysis buffer (50 mM Tris pH 7.4, 150 mM NaCl, 10% glycerol, 1% NP-40, 1 mM MgCl and 1X Roche cOmplete protease inhibitor cocktail) and protein concentration was determined via BCA protein assay (Peirce). Antibodies for immunoblotting were GSDMD (L60, Cell Signaling Technologies), cleaved GSDMD-Asp275 (E7H9G, Cell Signaling Technologies) and GAPDH (14C10, Cell Signaling Technologies).
On the technique in general: LDH in the medium is a marker of cell lysis.

Another experiment relates to IL-1β. As to the kind of experiment: GSDMD-dependent IL-1β release from monocytes. The format is cell-based, human. The conditions noted are these: nigericin or poly(dA-dT). As to the method:
as §1, §2

In another experiment the target is T1, PFKL (Homo sapiens, UniProt P17858).
T1 construct: endogenous in cells; host or cells: THP-1 cell lysate
T1 sequence (P17858 2-780 limits assumed): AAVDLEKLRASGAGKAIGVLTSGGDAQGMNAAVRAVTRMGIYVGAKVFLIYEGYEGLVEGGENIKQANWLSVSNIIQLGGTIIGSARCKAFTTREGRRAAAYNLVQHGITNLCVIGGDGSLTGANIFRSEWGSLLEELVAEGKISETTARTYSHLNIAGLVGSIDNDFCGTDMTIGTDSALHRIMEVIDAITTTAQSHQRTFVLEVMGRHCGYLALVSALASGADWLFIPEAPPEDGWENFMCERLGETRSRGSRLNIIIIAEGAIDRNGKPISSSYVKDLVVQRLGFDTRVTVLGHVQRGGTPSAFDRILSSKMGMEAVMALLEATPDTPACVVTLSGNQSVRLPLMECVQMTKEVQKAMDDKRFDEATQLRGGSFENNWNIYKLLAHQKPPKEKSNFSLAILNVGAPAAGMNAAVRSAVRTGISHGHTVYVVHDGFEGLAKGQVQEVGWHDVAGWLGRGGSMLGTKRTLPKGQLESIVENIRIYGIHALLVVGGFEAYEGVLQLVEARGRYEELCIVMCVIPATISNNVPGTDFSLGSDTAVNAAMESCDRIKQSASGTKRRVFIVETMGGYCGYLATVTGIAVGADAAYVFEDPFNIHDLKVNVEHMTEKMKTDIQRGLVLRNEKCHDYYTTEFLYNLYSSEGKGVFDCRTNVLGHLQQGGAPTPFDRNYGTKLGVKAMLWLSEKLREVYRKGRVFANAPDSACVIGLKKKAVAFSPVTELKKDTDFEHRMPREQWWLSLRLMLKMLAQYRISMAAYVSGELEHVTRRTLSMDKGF
The experiment can be described thus: Thermal shift of PFKL by immunoblotting in THP-1 lysates. The format is binding. As to the method: Figure 2. Chemoproteomic analysis of the global interactors and specific targets of NA-11 (A) Dual chemoproteomic workflow. (B) TPP analysis of neutrophil lysates. Graph plots the ΔTm induced by NA-11 between 37°C and 65°C versus log2(fold change in the area under the melting curve from 44°C to 58°C). Each circle represents a different protein. Top hits with an upward shift in Tm are boxed. p values were determined by paired Student’s t test. (C) Percentage of PMNs undergoing PMA-induced NETosis. Bars show the mean ± SD of cells from three donors. (D) Structures of PALP1 and PALP6. […] Dot size indicates the p values from the affinity pull-downs (paired Student’s t test). […] (F) Western blots of THP-1 lysates heated for 3 min. Graph indicates PFKL band intensities quantified using ImageJ. Data are the mean ± SD of three independent experiments. See also Figures S2 and S3.
We validated the interaction of NA-11 with PFKL in THP-1 cells by immunoblotting PFKL in TPP samples (Figure 2F). […] PDE6δ sustains Ras signaling, which activates the Raf-MEK (mitogen-activated ERK kinase)-ERK (extracellular signal-regulated kinase) pathway ([Chandra et al., 2011]). […] Thus, NA-11 must not inhibit NETosis by compromising the MEK-ERK signaling cascade downstream of PDE6δ.
Background: A western blot detects proteins with antibodies after separation by electrophoresis.

As for `COc1ccccc1-c1cc2n(n1)Cc1ccc(NC(C)=O)cc1OC2` [LDC7559, reference compound], the “GSDMD-dependent pyroptosis (LDH release)” value in experiment [1] is recorded as “did not alter GSDMD-dependent pyroptosis”. In the experiment with IL-1β, the “GSDMD-dependent release of IL-1β” value was “occurred normally”.

Regarding `CC(=O)Nc1ccc2c(c1)OCc1cc(-c3ccccc3C#CCCCO)nn1C2` [NA-11], the “melting temperature of PFKL with compound” value at PFKL (55°C ± 1°C without shift) came to 59 °C. For the same compound, on PFKL (immunoblot), the “thermal shift in PFKL” value was 4 °C.
